Laboratory results from ChEMBL document CHEMBL1201862, “PubChem BioAssay data set” (2004).
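96-well plates; 48 h exposure; 5 concentrations. Endpoints by linear interpolation between flanking doses. Not reached: highest tested concentration assigned. GI50 marks 50% less growth.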 Activity calls are given as the source filed them. Cut-off read from the data, not from the text of the source: active = GI50 up to about 1.1 µM and inactive = higher.

Key:
Assay in all cases: NCI anticancer screen, dose series, 48 h
[1] = tested on: SK-MEL-5
[2] = tested on: Hs-578T
[3] = tested on: SW-620
[4] = tested on: CAKI-1
[5] = tested on: HCC 2998
[6] = tested on: HT-29
[7] = tested on: MDA-MB-231
[8] = tested on: UACC-257
[9] = tested on: OVCAR-3
[10] = tested on: SK-MEL-2
[11] = tested on: DU-145
[12] = tested on: SNB-75
[13] = tested on: MOLT-4
[14] = tested on: UO-31
[15] = tested on: NCI/ADR-RES
[16] = tested on: SK-OV-3
[17] = tested on: NCI-H226
[18] = tested on: UACC-62
[19] = tested on: MDA-MB-435
[20] = tested on: RPMI-8226
[21] = tested on: TK-10
[22] = tested on: HOP-62
[23] = tested on: T47D
[24] = tested on: A498
[25] = tested on: EKVX
[26] = tested on: CCRF-CEM
[27] = tested on: SNB-19
[28] = tested on: OVCAR-4
[29] = tested on: SR
[30] = tested on: SK-MEL-28
[31] = tested on: SF-539
[32] = tested on: MDA-N
[33] = tested on: COLO 205
[34] = tested on: MCF7
[35] = tested on: OVCAR-8
[36] = tested on: PC-3
[37] = tested on: M14
[38] = tested on: U-251
[39] = tested on: NCI-H23
[40] = tested on: SF-295
[41] = tested on: OVCAR-5
[42] = tested on: HCT-15
[43] = tested on: ACHN
[44] = tested on: SF-268
[45] = tested on: LOX IMVI
[46] = tested on: K562
[47] = tested on: KM12
[48] = tested on: IGROV-1
[49] = tested on: HOP-92
[50] = tested on: NCI-H460
[51] = tested on: 786-0
[52] = tested on: BT-549
[53] = tested on: HL-60
[54] = tested on: Malme-3M
[55] = tested on: SN12C
[56] = tested on: HCT-116
[57] = tested on: A549
[58] = tested on: NCI-H522
[59] = tested on: RXF 393

SMILES: CC(=O)O[C@H]1CN(S(=O)(=O)c2ccc(C)cc2)C[C@@H]1C1CCCCC1
- GI50 [1]: 10.6 µM (inactive)
- GI50 [2]: 18.9 µM (inactive)
- GI50 [3]: 26.1 µM (inactive)
- GI50 [4]: 45.8 µM (inactive)
- GI50 [5]: 45.6 µM (inactive)
- GI50 [6]: 24.4 µM (inactive)
- GI50 [7]: 51.4 µM (inactive)
- GI50 [8]: 18 µM (inactive)
- GI50 [9]: 18 µM (inactive)
- GI50 [10]: 18.7 µM (inactive)
- GI50 [11]: 32.9 µM (inactive)
- GI50 [12]: 24.9 µM (inactive)
- GI50 [13]: 28.5 µM (inactive)
- GI50 [14]: 38.2 µM (inactive)
- GI50 [15]: 19.5 µM (inactive)
- GI50 [16]: 43.7 µM (inactive)
- GI50 [17]: 16.7 µM (inactive)
- GI50 [18]: 22.6 µM (inactive)
- GI50 [19]: 27.9 µM (inactive)
- GI50 [20]: 33.1 µM (inactive)
- GI50 [21]: 21.9 µM (inactive)
- GI50 [22]: 35.8 µM (inactive)
- GI50 [23]: 40.6 µM (inactive)
- GI50 [24]: > 100 µM (inactive)
- GI50 [25]: 17 µM (inactive)
- GI50 [26]: 37.5 µM (inactive)
- GI50 [27]: 55.3 µM (inactive)
- GI50 [28]: 31.9 µM (inactive)
- GI50 [29]: 18.6 µM (inactive)
- GI50 [30]: 20.5 µM (inactive)
- GI50 [31]: < 0.01 µM (active)
- GI50 [32]: 25.5 µM (inactive)
- GI50 [33]: 46.8 µM (inactive)
- GI50 [34]: 20.8 µM (inactive)
- GI50 [35]: 22.7 µM (inactive)
- GI50 [36]: 20.1 µM (inactive)
- GI50 [37]: 17.7 µM (inactive)
- GI50 [38]: 29.7 µM (inactive)
- GI50 [39]: 36.3 µM (inactive)
- GI50 [40]: 14.4 µM (inactive)
- GI50 [41]: 39 µM (inactive)
- GI50 [42]: 28.4 µM
- GI50 [43]: 36.9 µM (inactive)
- GI50 [44]: 26.7 µM (inactive)
- GI50 [45]: 21.6 µM (inactive)
- GI50 [46]: 32.9 µM (inactive)
- GI50 [47]: 17.9 µM (inactive)
- GI50 [48]: 18.8 µM (inactive)
- GI50 [49]: 23.2 µM (inactive)
- GI50 [50]: 31.7 µM (inactive)

SMILES: c1ccc(-c2cnc3nc4ccccc4nc3n2)cc1
- GI50 [1]: 3.05 µM (inactive)
- GI50 [2]: 3.78 µM (inactive)
- GI50 [3]: 2.81 µM (inactive)
- GI50 [4]: 0.942 µM (active)
- GI50 [5]: 11.7 µM (inactive)
- GI50 [6]: 7.05 µM (inactive)
- GI50 [7]: 2.69 µM (inactive)
- GI50 [8]: 2.25 µM (inactive)
- GI50 [9]: 1.16 µM (inactive)
- GI50 [10]: 2.88 µM (inactive)
- GI50 [51]: 3.9 µM (inactive)
- GI50 [11]: 3.83 µM (inactive)
- GI50 [12]: 2.66 µM (inactive)
- GI50 [13]: 1.31 µM (inactive)
- GI50 [14]: 4.58 µM (inactive)
- GI50 [15]: 3.81 µM (inactive)
- GI50 [16]: 2.87 µM (inactive)
- GI50 [17]: 3.23 µM (inactive)
- GI50 [18]: 2.85 µM (inactive)
- GI50 [19]: 1.58 µM (inactive)
- GI50 [20]: 1.32 µM (inactive)
- GI50 [21]: 4.2 µM (inactive)
- GI50 [22]: 13.9 µM (inactive)
- GI50 [23]: 3.85 µM (inactive)
- GI50 [24]: 3.33 µM (inactive)
- GI50 [52]: 3.43 µM (inactive)
- GI50 [53]: 1.82 µM (inactive)
- GI50 [25]: 2.88 µM (inactive)
- GI50 [26]: 0.301 µM (active)
- GI50 [27]: 13.7 µM (inactive)
- GI50 [28]: 1.72 µM (inactive)
- GI50 [29]: 0.826 µM (active)
- GI50 [30]: 14.7 µM (inactive)
- GI50 [31]: 3.25 µM (inactive)
- GI50 [33]: 2.15 µM (inactive)
- GI50 [34]: 1.82 µM (inactive)
- GI50 [35]: 1.98 µM (inactive)
- GI50 [37]: 6.11 µM (inactive)
- GI50 [54]: 2.45 µM (inactive)
- GI50 [38]: 4.94 µM (inactive)
- GI50 [55]: 9.08 µM (inactive)
- GI50 [56]: 2.86 µM (inactive)
- GI50 [39]: 3.82 µM (inactive)
- GI50 [40]: 6.11 µM (inactive)
- GI50 [41]: 13.6 µM (inactive)
- GI50 [42]: 2.5 µM
- GI50 [43]: 1.22 µM (inactive)
- GI50 [44]: 4.29 µM (inactive)
- GI50 [45]: 3.25 µM (inactive)
- GI50 [57]: 10 µM (inactive)
- GI50 [46]: 2.51 µM (inactive)
- GI50 [47]: 1.22 µM (inactive)
- GI50 [48]: 3.31 µM (inactive)
- GI50 [58]: 3.5 µM (inactive)
- GI50 [50]: 2.96 µM (inactive)

SMILES: Cc1cc(C)c(C#N)c(SC(=S)NC(=O)c2ccc(Cl)cc2)n1
- GI50 [1]: > 100 µM (inactive)
- GI50 [3]: > 100 µM (inactive)
- GI50 [4]: > 100 µM (inactive)
- GI50 [5]: > 100 µM (inactive)
- GI50 [7]: > 100 µM (inactive)
- GI50 [8]: > 100 µM (inactive)
- GI50 [9]: > 100 µM (inactive)
- GI50 [10]: > 100 µM (inactive)
- GI50 [51]: > 100 µM (inactive)
- GI50 [11]: > 100 µM (inactive)
- GI50 [12]: > 100 µM (inactive)
- GI50 [14]: > 100 µM (inactive)
- GI50 [15]: > 100 µM (inactive)
- GI50 [16]: > 100 µM (inactive)
- GI50 [59]: > 100 µM (inactive)
- GI50 [18]: > 100 µM (inactive)
- GI50 [19]: > 100 µM (inactive)
- GI50 [20]: > 100 µM (inactive)
- GI50 [21]: > 100 µM (inactive)
- GI50 [22]: > 100 µM (inactive)
- GI50 [23]: > 100 µM (inactive)
- GI50 [24]: > 100 µM (inactive)
- GI50 [52]: > 100 µM (inactive)
- GI50 [25]: > 100 µM (inactive)
- GI50 [26]: > 100 µM (inactive)
- GI50 [27]: > 100 µM (inactive)
- GI50 [28]: > 100 µM (inactive)
- GI50 [30]: > 100 µM (inactive)
- GI50 [33]: > 100 µM (inactive)
- GI50 [34]: > 100 µM (inactive)
- GI50 [35]: > 100 µM (inactive)
- GI50 [36]: > 100 µM (inactive)
- GI50 [37]: > 100 µM (inactive)
- GI50 [38]: > 100 µM (inactive)
- GI50 [56]: > 100 µM (inactive)
- GI50 [39]: > 100 µM (inactive)
- GI50 [40]: > 100 µM (inactive)
- GI50 [41]: > 100 µM (inactive)
- GI50 [42]: > 100 µM
- GI50 [43]: > 100 µM (inactive)
- GI50 [44]: > 100 µM (inactive)
- GI50 [45]: > 100 µM (inactive)
- GI50 [57]: > 100 µM (inactive)
- GI50 [47]: > 100 µM (inactive)
- GI50 [49]: > 100 µM (inactive)
- GI50 [50]: > 100 µM (inactive)
